Assay results from US4238491A (priority 1977, dated 1980).
Like-named read-outs stand apart in the source and are kept apart here.

Columns and labels:
rats [1] = tested on: rats
Method: (§1) The rate were bred in individual cages under the following conditions: temperature, 23°±2° C.; relative humidity, 55±5%; free taking of solid food (CE-2, CLEA Japan, Inc.) and tap water.
(§2) Volume of the medicine solution for one administration was dicided to be 1 ml per 100 g of weight, and the dose was administered once a day, 6 times a week over 5 weeks. The control group received the same volume of 0.2% carboxymethyl cellulose solution.

[2] = Excretion into bile after venous injection; format: in vivo; conditions: rabbit, iv, within 6 hours, of amount administered
Method: From the Figure it is recognized that an amount as small as 0.3 to 0.5% of the administered MR is discharged into bile within 6 hours after administration.

motorability = test: Effect on motorability (rotating bar); format: in vivo, mouse (dd-strain); conditions: 25 mg/kg oral; for Number of Animals that fell: 10 examined
Method: 25 mg/kg of MR were administered to 10 mice per one group. The mice were put on a wooden bar of 2 cm diameter which rotated at 10 r.p.m., and the number of mice which fell down from the bar was counted.

histamine = conditions: in vivo; cited from earlier work
rats [3] = test: Sub-acute toxicity: histopathological examination; format: in vivo, rat (SD (SPF)); conditions: for Adrenal Hypertrophy: 5 rats
Description: Rats were sacrificed under anesthesia with ether.
Five samples were randomly selected from each group, and paraffin-sectionedpreparations of the organs were made by a routine method. The preparations were stained with hematoxyline-eosin stain and Luxol-fast blue (central nervous system only) and examined histopathologically.

rats [4] = tested on: rats; remark: listed apart in the source
Method: as §1, §2
After the final administration followed by 24 hours fast, the following analyses were made: Glucose (by o-toluidine-boric acid method); Total Protein (by biurett method); Blood Uria Nitrogen (diacetyl monoxime method); GOT and GPT Activities (Reitman-Frankel method); Alkaline Phosphatase Activity (Kind-King method); and Sodium and Potassium Content (flame-photometer).

blood pressure of SHR = test: Antihypertensive effect by repeated administration, SHR; format: in vivo, rat (spontaneously hypertensive rats
Method: The effect was determined through a direct cannulation by using male SHRs aged 25 to 30 weeks and weighing about 300 g. […] Blood pressures were measured twice a day, just before and 4 hours after the administration with blood pressure recorder 8002 made by W+W Electronic.

[5] = tested on: spontaneous motor activity; test: Effect on spontaneous motor activity; format: in vivo, mouse (dd-strain); conditions: 25 mg/kg oral
Method: 25 mg/kg of MR were administered to the mice. After 15 minutes of letting them alone, spontaneous motor activity over 6 hours was measured hourly with an "Animex" made by AB Farad.

Method for hexobarbital hypnosis: Period of induced sleeping was measured with righting reflex as a parameter.

COC(=O)[C@H]1[C@H]2C[C@@H]3c4[nH]c5cc(OC)ccc5c4CCN3C[C@H]2C[C@@H](O)[C@@H]1OC [MR, methylreserpate]
Eosino. (rats [1]; 25.0 mg/kg, day 10): 1.5±0.3%
Lymph. (rats [1]; 25.0 mg/kg, day 10): 81.8±2.0%
Mono. (rats [1]; 25.0 mg/kg, day 10): 2.1±0.4%
Neutro. (rats [1]; 25.0 mg/kg, day 10): 14.6±1.6%
Platelet (rats [1]; 25.0 mg/kg, day 10): 853±32.6 ×10^3 /mm^3
Eosino. (rats [1]; 25.0 mg/kg, day 20): 1.8±0.4%
Lymph. (rats [1]; 25.0 mg/kg, day 20): 74.8±2.1%
Mono. (rats [1]; 25.0 mg/kg, day 20): 1.2±0.3%
Neutro. (rats [1]; 25.0 mg/kg, day 20): 22.8±2.2%
Eosino. (rats [1]; 25.0 mg/kg, day 30): 1.4±0.6%
Lymph. (rats [1]; 25.0 mg/kg, day 30): 78.0±2.0%
Mono. (rats [1]; 25.0 mg/kg, day 30): 1.5±0.5%
Neutro. (rats [1]; 25.0 mg/kg, day 30): 19.2±1.9%
Platelet (rats [1]; 25.0 mg/kg, day 30): 658±26.8 ×10^3 /mm^3
Eosino. (rats [1]; 50.0 mg/kg, day 10): 1.8±0.4%
Lymph. (rats [1]; 50.0 mg/kg, day 10): 82.3±1.1%
Mono. (rats [1]; 50.0 mg/kg, day 10): 2.4±0.3%
Neutro. (rats [1]; 50.0 mg/kg, day 10): 13.5±0.8%
Platelet (rats [1]; 50.0 mg/kg, day 10): 861±33.5 ×10^3 /mm^3
Eosino. (rats [1]; 50.0 mg/kg, day 20): 1.3±0.4%
Lymph. (rats [1]; 50.0 mg/kg, day 20): 75.0±2.3%
Mono. (rats [1]; 50.0 mg/kg, day 20): 1.6±0.3%
Neutro. (rats [1]; 50.0 mg/kg, day 20): 22.1±2.2%
Eosino. (rats [1]; 50.0 mg/kg, day 30): 2.6±0.5%
Lymph. (rats [1]; 50.0 mg/kg, day 30): 78.7±1.8%
Mono. (rats [1]; 50.0 mg/kg, day 30): 1.2±0.2%
Neutro. (rats [1]; 50.0 mg/kg, day 30): 17.5±1.8%
Platelet (rats [1]; 50.0 mg/kg, day 30): 656±36.7 ×10^3 /mm^3
Eosino. (rats [1]; 100.0 mg/kg, day 10): 2.3±0.5%
Lymph. (rats [1]; 100.0 mg/kg, day 10): 77.1±2.2%
Mono. (rats [1]; 100.0 mg/kg, day 10): 2.3±0.3%
Neutro. (rats [1]; 100.0 mg/kg, day 10): 18.3±2.3%
Platelet (rats [1]; 100.0 mg/kg, day 10): 782±31.2 ×10^3 /mm^3
Eosino. (rats [1]; 100.0 mg/kg, day 20): 1.2±0.3%
Lymph. (rats [1]; 100.0 mg/kg, day 20): 69.6±3.0%
Mono. (rats [1]; 100.0 mg/kg, day 20): 1.6±0.3%
Neutro. (rats [1]; 100.0 mg/kg, day 20): 27.6±2.9%
Eosino. (rats [1]; 100.0 mg/kg, day 30): 1.4±0.4%
Lymph. (rats [1]; 100.0 mg/kg, day 30): 75.2±1.6%
Mono. (rats [1]; 100.0 mg/kg, day 30): 1.5±0.3%
Neutro. (rats [1]; 100.0 mg/kg, day 30): 21.9±1.9%
Platelet (rats [1]; 100.0 mg/kg, day 30): 696±13.9 ×10^3 /mm^3
Eosino. (rats [1]; 200.0 mg/kg, day 10, 4 rats): 0.8±0.5%
Lymph. (rats [1]; 200.0 mg/kg, day 10, 4 rats): 36.3±12%
Mono. (rats [1]; 200.0 mg/kg, day 10, 4 rats): 1.3±0.5%
Neutro. (rats [1]; 200.0 mg/kg, day 10, 4 rats): 61.8±12%
Platelet (rats [1]; 200.0 mg/kg, day 10, 4 rats): 592±54.7 ×10^3 /mm^3
Hypnotic Time (hexobarbital hypnosis; 25 mg/kg oral): 159 ± 7 s
Sleeping Time (hexobarbital hypnosis; 25 mg/kg oral): 34.2 ± 6.7 min
Hypnotic Time (hexobarbital hypnosis; mouse, in vivo): 144 ± 7 s
Sleeping Time (hexobarbital hypnosis; mouse, in vivo): 32.9 ± 4.4 min
influence on time to induce sleep and sleeping period (hexobarbital hypnosis; mouse, in vivo): did not influence
dose excreted at 6 h [2]: 0.3 to 0.5%
Number of Animals that fell (motorability; 1 hour after): 0 Number of Animals
Number of Animals that fell (motorability; 2 hours after): 2 Number of Animals
effect on motorability (motorability; 3 hours after): slight suppression of motorability
Number of Animals that fell (motorability; 3 hours after): 4 Number of Animals
histamine (histamine): increse of histamine
Adrenal Hypertrophy (rats [3]; 25.0 mg/kg): - - - + -
Adrenal Hypertrophy (rats [3]; 50.0 mg/kg): + + ++ + +
Adrenal Hypertrophy (rats [3]; 100.0 mg/kg): + + + + +
Lung Alveolar wall Congestion (rats [3]; 200.0 mg/kg, 5 dead rats): + ++ ++ ++ +++
Lung Alveolar wall Pneumonia (rats [3]; 200.0 mg/kg, 5 dead rats): ++ ++ ++ + +
Lung Alveolus Pneumonia (rats [3]; 200.0 mg/kg, 5 dead rats): - - - - -
Lung Bronchus Bronchitis (rats [3]; 200.0 mg/kg, 5 dead rats): - - - - -
Pancreas (rats [3]; 200.0 mg/kg, 5 dead rats): - - - - -
Prostate (rats [3]; 200.0 mg/kg, 5 dead rats): - - - - /
Salivary Mucous gl. (rats [3]; 200.0 mg/kg, 5 dead rats): - - - - -
Salivary Serous gl. Atrophy (rats [3]; 200.0 mg/kg, 5 dead rats): - - - - -
Spleen Atrophy (rats [3]; 200.0 mg/kg, 5 dead rats): - - - - -
Spleen Congestion (rats [3]; 200.0 mg/kg, 5 dead rats): ++ ++ ++ + +
Spleen Haemosiderosis (rats [3]; 200.0 mg/kg, 5 dead rats): + + + + +
Stomach (rats [3]; 200.0 mg/kg, 5 dead rats): - - - - -
Testis (rats [3]; 200.0 mg/kg, 5 dead rats): - - - - -
Thyroid (rats [3]; 200.0 mg/kg, 5 dead rats): / - - - /
Thyroid Atrophy (rats [3]; 200.0 mg/kg, 5 dead rats): +++ / +++ / /
Urine bladder (rats [3]; 200.0 mg/kg, 5 dead rats): - - - - -
Bone marrow Hypoplasia (rats [3]; rat, in vivo): - - - - -
Central nerve (rats [3]; rat, in vivo): - - - - -
Heart Endocardium (rats [3]; rat, in vivo): - - - - -
Heart Epicardium (rats [3]; rat, in vivo): - - - - -
Heart Myocardium Focal collapse (rats [3]; rat, in vivo): + - - + -
Heart finding (rats [3]; rat, in vivo): focal collapse of heart muscles
Hypophysis (rats [3]; rat, in vivo): - - - - -
Intestine (rats [3]; rat, in vivo): - - - - -
Kidney (rats [3]; rat, in vivo): - - - - -
Liver Glisson's capsule Cell inf. (rats [3]; rat, in vivo): - + + + +
Liver Kupffer cell Swelling (rats [3]; rat, in vivo): - - + + -
Liver cell Degeneration (rats [3]; rat, in vivo): - - - - -
Liver cell cord Cell inf. (rats [3]; rat, in vivo): - - + - -
Liver cell cord Congestion (rats [3]; rat, in vivo): - - - - -
Liver: Glisson's capsule or liver cell cords; Kupffer cells (rats [3]; rat, in vivo): lymphocytic cell infiltration in Glisson's capsule or liver cell cords, and swelling of Kupffer cells
Lung Alveolar wall Congestion (rats [3]; rat, in vivo): - - - - -
Lung Alveolar wall Pneumonia (rats [3]; rat, in vivo): - - - - -
Lung Alveolus Pneumonia (rats [3]; rat, in vivo): - + - - -
Lung Bronchus Bronchitis (rats [3]; rat, in vivo): - - - - +
Lymph node (rats [3]; rat, in vivo): - - - - -
Pancreas (rats [3]; rat, in vivo): - - - - -
Prostate (rats [3]; rat, in vivo): - - - - -
Salivary Mucous gl. (rats [3]; rat, in vivo): - - - - -
Salivary Serous gl. Atrophy (rats [3]; rat, in vivo): - - - - -
Spleen Atrophy (rats [3]; rat, in vivo): - - - - -
Spleen Congestion (rats [3]; rat, in vivo): - - - - -
Spleen Haemosiderosis (rats [3]; rat, in vivo): + + + + +
Stomach (rats [3]; rat, in vivo): - - - - -
Testis (rats [3]; rat, in vivo): - - - - -
Thymus Atrophy (rats [3]; rat, in vivo): - - - - -
Thyroid (rats [3]; rat, in vivo): - - - - -
Urine bladder (rats [3]; rat, in vivo): - - - - -
kidney histopathology (rats [3]; rat, in vivo): no pathological change
other organs (rats [3]; rat, in vivo): No other pathological change
pathological change of adrenal (rats [3]; rat, in vivo): reversible hypertrophy of cortex
stomach mucous (rats [3]; rat, in vivo): no pathological change of stomach mucous
ALP (rats [4]; 25.0 mg/kg, 30 days): 17.0±0.93 K.A.U.
BUN (rats [4]; 25.0 mg/kg, 30 days): 15.7 ± 0.77 mg/dL
GOT (rats [4]; 25.0 mg/kg, 30 days): 92.2±8.74 K.U.
Glucose (rats [4]; 25.0 mg/kg, 30 days): 155.4 ± 6.06 mg/dL
Total Protein (rats [4]; 25.0 mg/kg, 30 days): 6.65 ± 0.08 g/dL
ALP (rats [4]; 50.0 mg/kg, 30 days): 18.7±1.39 K.A.U.
Total Protein (rats [4]; 50.0 mg/kg, 30 days): 6.76 ± 0.18 g/dL
BUN (rats [4]; 50.0 mg/kg, 30 days, P<0.05): 17.2 ± 0.56 mg/dL
GOT (rats [4]; 50.0 mg/kg, 30 days, P<0.05): 117.1±10.48 K.U.
Glucose (rats [4]; 50.0 mg/kg, 30 days, P<0.05): 113.7 ± 5.25 mg/dL
ALP (rats [4]; 100.0 mg/kg, 30 days): 22.7±2.91 K.A.U.
Total Protein (rats [4]; 100.0 mg/kg, 30 days): 6.57 ± 0.28 g/dL
BUN (rats [4]; 100.0 mg/kg, 30 days, P<0.05): 17.5 ± 1.01 mg/dL
GOT (rats [4]; 100.0 mg/kg, 30 days, P<0.05): 114.9±7.02 K.U.
Glucose (rats [4]; 100.0 mg/kg, 30 days, P<0.05): 100.5 ± 8.60 mg/dL
serum glucose (rats [4]; 50 and 100 mg/kg groups): decrease of glucose value
other serum biochemistry (rats [4]; all determinations other than glucose): all within the scope of normal values
ALP (rats [4]; rat, in vivo): 18.8±10.82
BUN (rats [4]; rat, in vivo): 14.6±0.35
GOT (rats [4]; rat, in vivo): 80.4±7.55
Glucose (rats [4]; rat, in vivo): 149.3±3.36
Total Protein (rats [4]; rat, in vivo): 7.06±0.09
blood pressure 24 hours after administration (blood pressure of SHR; oral, once a day over 2 weeks): had returned almost to the original level
disappearance of effect compared with RSP (blood pressure of SHR; rat, in vivo): disappears more rapidly than that of RSP
tolerance (blood pressure of SHR; repeated administration over 2 weeks): hardly giving tolerance
long lasting effect (blood pressure of SHR; single and repeated administration to SHRs): no long lasting effect
average suppressive effect among four groups ([5]; P=0.05): no significant difference
effect on spontaneous motor activity ([5]; from 3 hours after): tended to supress spontaneous motor activity
